The test has as its system culture astrocyte. Nature of the test: Astrocyte proliferative activity test (BrdU cell proliferation ELISA). It counts as cell-based, mouse. Here is the method:
A pregnant ICR female mouse was purchased from Japan SLC, Inc., and a neonatal mouse 24 to 48 after birth was used for the test.
A neonatal ICR mouse (24 to 48 after birth) was sufficiently sterilized with 70% ethanol, immersed in 30 ml of PBS (−) in a 100 mm dish (diameter of 100 mm, Orange Scientific) for cell culture, and then placed in a clean bench. The neonatal mouse was subjected to cervical dislocation using tweezers and euthanized. Head of the neonatal mouse was open and the entire brain was removed. The obtained brain was transferred to a 100 mm dish for cell culture in which 15 ml of high glucose Dulbecco's modified Eagle medium (HG-D-MEM, Wako Pure Chemical Industries, Ltd.) is added. By using tweezers, the olfactory bulb, median eminence, and meninges were removed in the medium to obtain only a cerebrum having hippocampus. Subsequently, the obtained cerebrum was transferred to a 100 mm dish for cell culture added with 10 ml of HG-D-MEM, and using a scalpel, the cerebrum was finely cut to be 1 mm^2 or less. The cerebrum after cutting was transferred, together with the medium, to a 50 ml conical tube (TPP), and after allowing it to stand for 2 minutes, the supernatant was removed. Subsequently, the cerebrum after cutting was added with 4 ml of fresh HG-D-MEM, and after further adding 400 μl of 2.5% trypsin (SIGMA) and 40 μl of 1% DNase I (SIGMA), the cerebrum was incubated in a water bath at 37° C. for 10 minutes under intermittent stirring. Subsequently, to the cerebrum after cutting, 10 ml of HG-D-MEM (10% FBS) was added to terminate the reaction of trypsin followed by centrifuge for 3 minutes at 1,000×g using a centrifuge (H-9R, KOKUSAN Co., Ltd.). The supernatant was collected by an electric pipette, 10 ml of HG-D-MEM (10% FBS) was added to a precipitated cell mass, and pipetting using a sterile pipette was carried out several times until the cell mass is not observed. To remove the remaining cell mass from this cell dispersion, the cell dispersion was passed through a cell strainer (pore diameter of 100 μm, BD Falcon™), and the number of cells in the cell dispersion which has passed through the cell strainer was counted by using a cell counting plate. An adjustment was made with HG-D-MEM (10% FBS) such that the number of cells is 6.0×10^5 cells/ml. After the adjustment of the number of cells, the cell dispersion was seeded, in an amount of 7 ml for each, to a Poly-D-Lysine Cellware 100 mm Dish (PDL 100 mm dish, BD Falcon™). 96 Hours after the seeding, the medium was removed once using an aspirator, and after briefly washing the inside of a 100 mm PDL dish with 10 ml of PBS (−), the medium exchange was carried out by newly adding 7 ml of HG-D-MEM. The above method and the astrocyte preparation described below were carried out based on the method of McCarthy and de Vellis (1980, Non Patent Literature 30).
72 Hours after the medium exchange, the 100 mm PDL dish seeded with the cell broth was removed from the incubator, and tightly covered using a parafilm and fixed by overlaying 3 to 4 dishes. The resultant was cultured by shaking using a bioshaker (MULTI SHAKER MMS, INCUBATOR FMS/EYELA) under a condition including 37° C., 100 rpm, and 20 hours, and the neuronal cells, cell debris, dead cells or the like were liberated. At that time, in the inside the 100 mm PDL dish, only the astrocyte as a glial cell in central nervous system other than neuron was adhered (hereinbelow, described as culture astrocyte). After the shaking, the 100 mm PDL dish was transferred to a clean bench, the supernatant was removed by an aspirator and washed with 10 ml of PBS (−), and after adding 1 ml of 2.5% trypsin (SIGMA) using a Pasteur pipette, the dish was left to stand in an incubator for 10 minutes. The 100 mm PDL dish was again brought back to the clean bench, and added with 10 ml of Dulbecco's modified Eagle medium (D-MEM, Wako Pure Chemical Industries, Ltd.) (10% FBS). […]

Consider two compounds from patent publication US10654890B2, “Cyclic peptide derivative, method for preparing same and composition thereof” (priority 2014, dated 2020).

Each structure is given as a SMILES string. Where a name gives a salt, the structure may show the parent alone.

Turning to `COc1cc2c(cc1OC)C(=O)C(CC1CCN(Cc3ccccc3)CC1)C2` (centres unmarked) [donepezil hydrochloride, reference compound], where the note is “25 μM, FIG. 8 and FIG. 9”, the astrocyte proliferative activity result was “no significant astrocyte proliferative activity was observed”.
Turning to `CCC1(C)Oc2cc(ccc2O)C(O)C(NC)C(=O)NC(C(C)C)C(=O)NC1C(=O)NC(CCC(=O)O)C(=O)O` (centres unmarked) [cyclic peptide derivative], the “astrocyte proliferation compared to the control group” value (25 μM, FIG. 7) is listed as “about 12 times”. Also, the “astrocyte proliferation accelerating activity” value (0.1, 1, 5, 10, 25, and 50 μM, 24 hours exposure, FIG. 6) was “observed with concentration dependency”. The astrocyte proliferative activity entry is, setting by setting: (extracts and fractions of the isolation and purification steps, listed as F3-10-4-5-3) “significant astrocyte proliferative activity”; (extracts and fractions of the isolation and purification steps, listed as F-3-10-4-5-3) “containing the components with an astrocyte proliferative activity”.
